Assay results as given in US20050131051A1, “2-3-disubstituted quinuclidiness as modulators of monoamine transporters and theraperutic and diagnostic methods based thereon” (priority 2000, published 2005).
Read-outs that look alike come from different tables or passages of the source.

Key:
[1] = molecular target: T1, dopamine transporter (DAT) (Rattus norvegicus, UniProt P23977); test: [3H]mazindol binding assay; settings: for Ki: rat striatum membranes, mean ± standard error or range of 2-3 experiments
T1 construct: P2 membrane pellets were prepared by differential centrifugation from rat striatum; from tissue; host or cells: rat striatum (P2 membrane pellet / P2 synaptosomes)
Procedure: Binding assays were conducted as previously described. Briefly conventional P2 membrane pellets were prepared by differential centrifugation from rat striatum. The P2 pellet was resuspended in Krebs-Ringer-HEPES (KRH) buffer consisting of (in mM): NaCl (125), KCl (4.8), MgSO4 (1.2), CaCl2 (1.3), KH2PO4 (1.2), glucose (5.6), nialamide (0.01), and HEPES (25) (pH 7.4) and centrifuged again. Finally, the pellet was resuspended in 30 volumes of buffer, pelleted at 15,000×g and frozen at −80° C. until used. The striatal homogenates were thawed by resuspension in the buffer described above at 75-125 µg protein/ml and incubated with [^3H]mazindol, with or without competing drugs, for 60 min in a 4° C. cold room. […] The bound and free [^3H]mazindol were separated by rapid vacuum filtration over Whatman GF/C filters, using a Brandel M24R cell harvester, followed by two washes with 5 ml of cold buffer. Radioactivity on the filters was then extracted by allowing to sit over night with 5 ml of scintillant. The vials were vortexed and counted. IC50 values were determined using the computer program LIGAND.
For binding assays, caudate nuclei were homogenized using a polytron in 0.32 M sucrose and centrifuged for 10 mm at 1000×g. The supernatant was resuspended in cold sucrose and centrifuged at 17,500×g for 20 mm. The pellet was resuspended in Krebs-Ringer-HEPES (KRH) buffer consisting of (in mM): NaCl (125), KCl (4.8), MgSO4 (1.2), CaCl2 (1.3), KH2PO4(1.2), glucose (5.6), nialamide (0.01), and HEPES (25) (pH 7.4) and centrifuged again. Finally, the pellet was resuspended in 30 volumes of buffer, pelleted at 15,000×g and frozen at −80° C. until used. The striatal homogenates were thawed by resuspension in the buffer described above at 75-125 μg protein/ml and incubated with [^3H]mazindol, with or without competing drugs, for 60 mm in a 4° C. cold room. […] The bound and free [^3H]mazindol were separated by rapid vacuum filtration over Whatman GF/C filters, using a Brandel M24R cell harvester, followed by two washes with 5 ml of cold buffer. Radioactivity on the filters was then extracted by allowing to sit over night with 5 ml of scintillant. The vials were vortexed and counted. IC50 values were determined using the computer program LIGAND.

[2] = molecular target: T1, dopamine transporter (DAT); test: Synaptosomal uptake of [3H]DA (inhibition of DA reuptake); format: biochemical
Procedure: The effect of candidate compounds in antagonizing dopamine high-affinity uptake was determined using a method previously employed. For [^3H]DA uptake, freshly dissected rat striata were homogenized with a Teflon-glass pestle in ice-cold 0.32 M sucrose and centrifuged for 10 min at 1000×g. The supernatant was centrifuged at 17,500×g for 20 min. This P2 synaptosomal pellet was resuspended in 30 volumes of ice-cold modified KRH buffer. An aliquot of the synaptosomal suspension was preincubated with the buffer and drug for 30 min at 37° C., and uptake initiated by the addition of [^3H]dopamine (5 nM, final conc.). After 5 min, uptake was terminated by adding 5 ml of cold buffer containing glucosamine as a substitute for NaCl and then finally by rapid vacuum filtration over GF-C glass fiber filters, followed by washing with two 5 ml volumes of ice-cold, sodium-free buffer. Radioactivity retained on the filters was determined by liquid scintillation spectrometry. […] It is identical to that calculated by subtracting the mean of identical tubes incubated at 0° C.
(§1) IC50 values were determined by a computer assisted, iterative fit to a four-parameter sigmoidal equation (ALLFIT). These values were then converted to Ki values according to the Cheng-Prusoff equation assuming classical competitive inhibition. Preincubation of the drug and synaptosomes at 37° C. for 30 min was used to approximate equilibrium conditions as necessary to satisfy the requirements of the Cheng-Prusoff equation.
(§2) The effect of candidate compounds in antagonizing dopamine high-affinity uptake was determined using a method previously employed. For [^3H]DA uptake, dissected rat striata were homogenized with a Teflon-glass pestle in ice-cold 0.32 M sucrose and centrifuged for 10 mm at 1000×g. The supernatant was centrifuged at 17,500×g for 20 mm. This P2 synaptosomal pellet was resuspended in 30 volumes of ice-cold modified KRH buffer. An aliquot of the synaptosomal suspension was preincubated with the buffer and drug for 30 mm at 37° C., and uptake initiated by the addition of [^3H]dopamine (5 nM, final conc.). After 5 mm, uptake was terminated by adding 5 ml of cold buffer containing glucosamine as a substitute for NaCl and then finally by rapid vacuum filtration over GF-C glass fiber filters, followed by washing with two 5 ml volumes of ice-cold, sodium-free buffer. Radioactivity retained on the filters was determined by liquid scintillation spectrometry. […] Also, specific uptake of [^3H]5-HT and [^3H]NE were defined in the presence of 10 uM fluoxetine and 1 uM desipramine, respectively.

[3] = molecular target: T2, norepinephrine transporter (Rattus norvegicus, UniProt Q63380); test: Synaptosomal uptake of [3H]NE; format: biochemical
T2 construct: using synaptosomes prepared from rat midbrain and parietal/occipital cortex, respectively; from tissue; host or cells: rat parietal/occipital cortex synaptosomes
Procedure: as §1, §2

serotonin transporter = molecular target: T3, serotonin transporter (Rattus norvegicus, UniProt P31652); test: Synaptosomal uptake of [3H]5-HT; format: biochemical
T3 construct: using synaptosomes prepared from rat midbrain and parietal/occipital cortex, respectively; from tissue; host or cells: rat midbrain synaptosomes
Procedure: as §1, §2

DAT = DAT (Homo sapiens, UniProt Q01959); settings: cited from earlier work
[4] = Ki (nM) DA Reuptake, rat striatal synaptosomes, mean ± standard error or range of 2-3 experiments
[5] = Ki (nM) NE, synaptosomes from rat parietal/occipital cortex, mean ± standard error or range of 2-3 experiments
[6] = Ki (nM) SER, synaptosomes from rat midbrain, mean ± standard error or range of 2-3 experiments
[7] = read-out: Ki (nM) [3H] Mazindol Binding
[8] = binding affinity and DA reuptake not distinguished in the sentence

T2 sequence (Q63380 1-617): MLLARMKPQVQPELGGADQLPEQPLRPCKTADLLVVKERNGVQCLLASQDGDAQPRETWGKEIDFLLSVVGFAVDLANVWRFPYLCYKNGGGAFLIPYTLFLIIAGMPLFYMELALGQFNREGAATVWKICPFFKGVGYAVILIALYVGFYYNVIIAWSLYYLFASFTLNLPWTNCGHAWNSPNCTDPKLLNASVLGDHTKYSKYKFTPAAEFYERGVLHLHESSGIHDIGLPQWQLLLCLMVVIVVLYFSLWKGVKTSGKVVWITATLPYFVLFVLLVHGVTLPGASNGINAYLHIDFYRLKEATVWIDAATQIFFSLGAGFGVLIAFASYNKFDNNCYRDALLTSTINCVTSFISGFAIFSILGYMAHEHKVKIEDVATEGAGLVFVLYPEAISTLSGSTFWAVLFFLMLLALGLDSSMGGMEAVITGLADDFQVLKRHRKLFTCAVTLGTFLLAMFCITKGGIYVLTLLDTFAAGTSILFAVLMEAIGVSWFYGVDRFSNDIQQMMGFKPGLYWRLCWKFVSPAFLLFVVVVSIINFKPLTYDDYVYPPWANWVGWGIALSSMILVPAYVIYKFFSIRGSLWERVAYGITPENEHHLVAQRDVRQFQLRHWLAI
T1 sequence (P23977 whole entry): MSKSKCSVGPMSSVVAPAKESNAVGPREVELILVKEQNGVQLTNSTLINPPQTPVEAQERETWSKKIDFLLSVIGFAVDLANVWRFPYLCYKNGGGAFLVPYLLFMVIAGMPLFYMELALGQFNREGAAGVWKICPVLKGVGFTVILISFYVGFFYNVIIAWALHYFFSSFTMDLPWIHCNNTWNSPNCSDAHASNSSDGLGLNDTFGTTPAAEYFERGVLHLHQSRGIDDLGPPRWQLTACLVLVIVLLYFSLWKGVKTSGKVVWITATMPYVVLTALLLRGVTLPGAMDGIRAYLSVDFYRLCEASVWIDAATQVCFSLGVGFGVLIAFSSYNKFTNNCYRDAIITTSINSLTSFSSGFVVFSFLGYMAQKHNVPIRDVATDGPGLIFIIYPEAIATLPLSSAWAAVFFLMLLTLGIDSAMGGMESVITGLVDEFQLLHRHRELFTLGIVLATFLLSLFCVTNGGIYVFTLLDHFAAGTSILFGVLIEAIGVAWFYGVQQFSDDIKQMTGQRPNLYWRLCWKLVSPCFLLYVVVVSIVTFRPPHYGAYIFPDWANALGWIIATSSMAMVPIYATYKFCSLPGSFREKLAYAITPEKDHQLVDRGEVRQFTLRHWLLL
T3 sequence (P31652 whole entry): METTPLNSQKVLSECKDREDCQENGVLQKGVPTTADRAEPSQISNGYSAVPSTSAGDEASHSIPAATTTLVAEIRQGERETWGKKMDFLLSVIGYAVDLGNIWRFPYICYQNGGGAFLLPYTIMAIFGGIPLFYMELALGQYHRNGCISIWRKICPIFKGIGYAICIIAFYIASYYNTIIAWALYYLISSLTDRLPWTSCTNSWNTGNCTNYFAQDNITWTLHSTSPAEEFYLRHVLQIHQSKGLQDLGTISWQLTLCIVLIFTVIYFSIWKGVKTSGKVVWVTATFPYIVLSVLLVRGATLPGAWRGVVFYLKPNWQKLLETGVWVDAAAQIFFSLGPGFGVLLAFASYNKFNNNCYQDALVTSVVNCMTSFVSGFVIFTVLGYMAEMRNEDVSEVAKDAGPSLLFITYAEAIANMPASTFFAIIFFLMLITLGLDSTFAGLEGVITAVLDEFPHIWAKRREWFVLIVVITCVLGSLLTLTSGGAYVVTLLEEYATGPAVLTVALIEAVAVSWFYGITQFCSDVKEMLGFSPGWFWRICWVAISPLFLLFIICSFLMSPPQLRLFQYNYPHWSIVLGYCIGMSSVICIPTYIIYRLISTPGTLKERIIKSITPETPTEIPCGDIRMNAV
Chain of DAT (Q01959 whole entry, species assumed): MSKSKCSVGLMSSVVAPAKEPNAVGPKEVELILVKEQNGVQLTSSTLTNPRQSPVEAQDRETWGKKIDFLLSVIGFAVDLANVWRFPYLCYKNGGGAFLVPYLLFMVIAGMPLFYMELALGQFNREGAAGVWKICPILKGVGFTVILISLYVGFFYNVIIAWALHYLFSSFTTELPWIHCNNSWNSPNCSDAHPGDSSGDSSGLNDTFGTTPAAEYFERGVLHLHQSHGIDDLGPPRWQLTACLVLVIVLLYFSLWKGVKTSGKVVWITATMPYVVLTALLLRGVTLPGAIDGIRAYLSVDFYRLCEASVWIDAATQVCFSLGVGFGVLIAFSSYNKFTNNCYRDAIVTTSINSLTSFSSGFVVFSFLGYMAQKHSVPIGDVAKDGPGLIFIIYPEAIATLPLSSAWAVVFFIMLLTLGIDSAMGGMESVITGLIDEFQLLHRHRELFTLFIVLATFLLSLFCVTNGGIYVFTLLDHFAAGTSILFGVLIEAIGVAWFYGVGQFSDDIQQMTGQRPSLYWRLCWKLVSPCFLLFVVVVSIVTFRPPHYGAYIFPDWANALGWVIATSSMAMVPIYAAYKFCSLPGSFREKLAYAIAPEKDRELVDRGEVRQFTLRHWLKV

CCCCC1C(c2ccc(C)cc2)C2CCN1CC2 (racemic) [(±)-13, 2-Butyl-3-(4-methylphenyl)quinuclidine]
Ki ([1]; Ki (nM) [3H] Mazindol Binding): 20 nM
fold improvement over 13 (so in the source) in binding activity ([1]; ratio of Ki values): 11 fold
fold improvement over the lead compound (3) in binding affinity ([1]; ratio of Ki values): 365 fold
Ki [2, 4]: 49 nM
fold improvement over 13 (so in the source) in uptake activity ([2]; ratio of Ki values): 5 fold
fold improvement over the lead compound (3) in inhibition of DA reuptake ([2]; ratio of Ki values): 181 fold
Ki [3, 5]: 62 ± 5 nM
Ki (serotonin transporter; [6]): 77 ± 7 nM

CCCCC1C(c2ccccc2)C2CCN1CC2 (racemic) [(±)-12, 2-Butyl-3-phenylquinuclidine]
times more potent than cocaine in binding affinity [1]: as potent as cocaine
Ki [1, 7]: 210 nM
fold improvement over the lead compound (3) in binding affinity ([1]; ratio of Ki values): 31 fold
times more potent than cocaine in inhibition of DA reuptake [2]: as potent as cocaine
Ki [2, 4]: 237 nM
fold improvement over the lead compound (3) in inhibition of DA reuptake ([2]; ratio of Ki values): 32 fold
Ki [3]: 136 ± 11 nM
Ki (serotonin transporter): 655 ± 21 nM

CCCCC1C(c2ccc(C)cc2)C2CCN1CC2 (single isomer, unassigned; (+)) [(+)-13, 2-Butyl-3-(4-methylphenyl)quinuclidine]
Ki [1, 7]: 343 nM
Ki [2, 4]: 354 nM
Ki [3]: 164 ± 47 nM
Ki (serotonin transporter): 508 ± 22 nM

CCCCC1C(c2ccc(C)cc2)C2CCN1CC2 (single isomer, unassigned; (-)) [(−)-13, 2-Butyl-3-(4-methylphenyl)quinuclidine]
times more potent than cocaine in binding affinity [1]: 17 times
Ki ([1]; Ki (nM) [3H] Mazindol Binding): 14 nM
fold improvement over the lead compound (3) in binding affinity ([1]; ratio of Ki values): 519 fold
times more potent than cocaine in inhibition of DA reuptake [2]: 9 times
Ki [2, 4]: 32 nM
fold more potent than (±)-13 [2, 8]: approximately 2 fold
fold more potent than its enantiomer (+)-13 [2, 8]: 11 fold
fold improvement over the lead compound (3) in inhibition of DA reuptake ([2]; ratio of Ki values): 278 fold
Ki [3, 5]: 15 ± 3 nM
Ki (serotonin transporter; [6]): 26 ± 3 nM

C=CCCC1N2CCC(CC2)C1(O)c1ccccc1 (centres unmarked) [Compound 8, 2-But-3-enyl-3-phenylquinuclidin-3-ol]
Ki ([2]; Ki value (text, refers to Table 1 DA reuptake)): 31200 nM
fold less potent than 12 ([2]; ratio of Ki values, DA reuptake): 131 fold

C=CCCC1C(=O)C2CCN1CC2 (centres unmarked) [Compound 7, 2-But-3-enylquinuclidin-3-one]
Ki [2, 4]: > 10000 nM
measurable activity in inhibition of DA reuptake ([2]; at 10 µM): did not show any measurable activity

COC(=O)[C@H]1[C@@H](c2ccccc2)C[C@@H]2CC[C@H]1N2C [2 (WIN 35065-2), WIN 35065-2]
binding affinity at the DAT site, times better than cocaine (DAT): 4 times
